Reference: PubChem BioAssay (NCI)
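Step 1: Grow cells in 96-well plates. Step 2: Expose to compound for 48 hours at 5 concentrations. Step 3: Interpolate endpoints linearly; if unreached, use highest concentration. Here, GI50 denotes the concentration required for 50% inhibition of growth. TGI: total growth inhibition.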

Legend:
Assay in all cases: NCI tumour cell line growth inhibition, 48 h
786-0 renal = tested on: 786-0 renal
A498 renal = tested on: A498 renal
A549 NSCLC = tested on: A549 NSCLC
ACHN renal = tested on: ACHN renal
BT-549 breast = tested on: BT-549 breast
CAKI-1 renal = tested on: CAKI-1 renal
CCRF-CEM leukemia = tested on: CCRF-CEM leukemia
COLO 205 colon = tested on: COLO 205 colon
DU-145 prostate = tested on: DU-145 prostate
EKVX NSCLC = tested on: EKVX NSCLC
HCT-116 colon = tested on: HCT-116 colon
HCT-15 colon = tested on: HCT-15 colon
HL-60(TB) leukemia = tested on: HL-60(TB) leukemia
HOP-62 NSCLC = tested on: HOP-62 NSCLC
HOP-92 NSCLC = tested on: HOP-92 NSCLC
HS 578T breast = tested on: HS 578T breast
HT29 colon = tested on: HT29 colon
IGROV1 ovarian = tested on: IGROV1 ovarian
K-562 leukemia = tested on: K-562 leukemia
KM12 colon = tested on: KM12 colon
LOX IMVI melanoma = tested on: LOX IMVI melanoma
M14 melanoma = tested on: M14 melanoma
MALME-3M melanoma = tested on: MALME-3M melanoma
MCF7 breast = tested on: MCF7 breast
MDA-MB-231 breast = tested on: MDA-MB-231 breast
MDA-MB-435 = tested on: MDA-MB-435
MOLT-4 leukemia = tested on: MOLT-4 leukemia
NCI-H226 lung = tested on: NCI-H226 lung
NCI-H23 lung = tested on: NCI-H23 lung
NCI-H460 lung = tested on: NCI-H460 lung
NCI-H522 lung = tested on: NCI-H522 lung
NCI/ADR-RES ovarian = tested on: NCI/ADR-RES ovarian
OVCAR-3 ovarian = tested on: OVCAR-3 ovarian
OVCAR-4 ovarian = tested on: OVCAR-4 ovarian
OVCAR-5 ovarian = tested on: OVCAR-5 ovarian
OVCAR-8 ovarian = tested on: OVCAR-8 ovarian
PC-3 prostate = tested on: PC-3 prostate
RPMI-8226 leukemia = tested on: RPMI-8226 leukemia
RXF 393 renal = tested on: RXF 393 renal
SF-268 CNS = tested on: SF-268 CNS
SF-295 CNS = tested on: SF-295 CNS
SF-539 CNS = tested on: SF-539 CNS
SK-MEL-2 melanoma = tested on: SK-MEL-2 melanoma
SK-MEL-28 melanoma = tested on: SK-MEL-28 melanoma
SK-MEL-5 melanoma = tested on: SK-MEL-5 melanoma
SK-OV-3 ovarian = tested on: SK-OV-3 ovarian
SN12C renal = tested on: SN12C renal
SNB-19 CNS = tested on: SNB-19 CNS
SNB-75 CNS = tested on: SNB-75 CNS
SR leukemia = tested on: SR leukemia
SW-620 colon = tested on: SW-620 colon
T-47D breast = tested on: T-47D breast
TK-10 renal = tested on: TK-10 renal
U251 CNS = tested on: U251 CNS
UACC-257 melanoma = tested on: UACC-257 melanoma
UACC-62 melanoma = tested on: UACC-62 melanoma
UO-31 renal = tested on: UO-31 renal
HCC-2998 colon = tested on: HCC-2998 colon

## CCOC(=O)/C(=C(/C)NCC(C)C)c1cc(O)c(O)c2c(C)cc(=O)[nH]c12
786-0 renal
  GI50: 12.2 µM
  TGI: 46.4 µM
A498 renal
  GI50: 8.31 µM
  TGI: 29.7 µM
A549 NSCLC
  GI50: 7.8 µM
  TGI: > 100 µM
ACHN renal
  GI50: 7.99 µM
  TGI: > 100 µM
BT-549 breast
  GI50: 6.22 µM
  TGI: 66.7 µM
CAKI-1 renal
  GI50: 5.17 µM
  TGI: > 100 µM
CCRF-CEM leukemia
  GI50: 1.4 µM
  TGI: 55.5 µM
COLO 205 colon
  GI50: > 100 µM
  TGI: > 100 µM
DU-145 prostate
  GI50: 10.5 µM
  TGI: > 100 µM
EKVX NSCLC
  GI50: 5.45 µM
  TGI: > 100 µM
HCT-116 colon
  GI50: 3.19 µM
  TGI: 30.6 µM
HCT-15 colon
  GI50: 2.2 µM
  TGI: > 100 µM
HL-60(TB) leukemia
  GI50: 2.63 µM
  TGI: > 100 µM
HOP-62 NSCLC
  GI50: 10.3 µM
  TGI: 37 µM
HOP-92 NSCLC
  GI50: 9.51 µM
  TGI: 45 µM
HS 578T breast
  GI50: 13.4 µM
  TGI: 57.3 µM
HT29 colon
  GI50: > 100 µM
  TGI: > 100 µM
IGROV1 ovarian
  GI50: 9.21 µM
  TGI: > 100 µM
K-562 leukemia
  GI50: 6.8 µM
  TGI: > 100 µM
KM12 colon
  GI50: 12.4 µM
  TGI: > 100 µM
LOX IMVI melanoma
  GI50: 5.78 µM
  TGI: > 100 µM
M14 melanoma
  GI50: 4.53 µM
  TGI: > 100 µM
MALME-3M melanoma
  GI50: 11.4 µM
  TGI: 70.8 µM
MCF7 breast
  GI50: 4.38 µM
  TGI: > 100 µM
MDA-MB-231 breast
  GI50: 4 µM
  TGI: 94.1 µM
MDA-MB-435
  GI50: 5.93 µM
  TGI: > 100 µM
MOLT-4 leukemia
  GI50: 3.8 µM
  TGI: > 100 µM
NCI-H226 lung
  GI50: 10.6 µM
  TGI: > 100 µM
NCI-H23 lung
  GI50: 5.48 µM
  TGI: > 100 µM
NCI-H460 lung
  GI50: 4.32 µM
  TGI: > 100 µM
NCI-H522 lung
  GI50: 3.02 µM
  TGI: 51.6 µM
NCI/ADR-RES ovarian
  GI50: 2.42 µM
  TGI: 95.7 µM
OVCAR-3 ovarian
  GI50: 3.16 µM
  TGI: > 100 µM
OVCAR-4 ovarian
  GI50: 2.62 µM
  TGI: 50 µM
OVCAR-5 ovarian
  GI50: 64.7 µM
  TGI: > 100 µM
OVCAR-8 ovarian
  GI50: 4.87 µM
  TGI: > 100 µM
PC-3 prostate
  GI50: 11.1 µM
  TGI: > 100 µM
RPMI-8226 leukemia
  GI50: 3.5 µM
  TGI: > 100 µM
RXF 393 renal
  GI50: 1.18 µM
  TGI: 20.4 µM
SF-268 CNS
  GI50: 4.67 µM
  TGI: > 100 µM
SF-295 CNS
  GI50: 4.46 µM
  TGI: 48.1 µM
SF-539 CNS
  GI50: 5.52 µM
  TGI: 85.1 µM
SK-MEL-2 melanoma
  GI50: 5.92 µM
  TGI: > 100 µM
SK-MEL-28 melanoma
  GI50: 34.7 µM
  TGI: > 100 µM
SK-MEL-5 melanoma
  GI50: 11.1 µM
  TGI: > 100 µM
SK-OV-3 ovarian
  GI50: 13 µM
  TGI: > 100 µM
SN12C renal
  GI50: 4.96 µM
  TGI: > 100 µM
SNB-19 CNS
  GI50: 13.8 µM
  TGI: > 100 µM
SNB-75 CNS
  GI50: 3.85 µM
  TGI: 29.8 µM
SR leukemia
  GI50: 4.02 µM
  TGI: > 100 µM
SW-620 colon
  GI50: 4.95 µM
  TGI: > 100 µM
T-47D breast
  GI50: 5.09 µM
  TGI: > 100 µM
TK-10 renal
  GI50: 9.18 µM
  TGI: 68.3 µM
U251 CNS
  GI50: 8.68 µM
  TGI: 50.9 µM
UACC-257 melanoma
  GI50: 14.3 µM
  TGI: > 100 µM
UACC-62 melanoma
  GI50: 7.12 µM
  TGI: > 100 µM
UO-31 renal
  GI50: 46.1 µM
  TGI: > 100 µM

## COc1cccc2c1c(C1=C(c3cn(C)c4ccccc34)C(=O)NC1=O)cn2C
786-0 renal
  GI50: > 25 µM
  TGI: > 25 µM
A498 renal
  GI50: > 25 µM
  TGI: > 25 µM
A549 NSCLC
  GI50: > 25 µM
  TGI: > 25 µM
ACHN renal
  GI50: > 25 µM
  TGI: > 25 µM
BT-549 breast
  GI50: > 25 µM
  TGI: > 25 µM
CAKI-1 renal
  GI50: > 25 µM
  TGI: > 25 µM
CCRF-CEM leukemia
  GI50: > 25 µM
  TGI: > 25 µM
COLO 205 colon
  GI50: > 25 µM
  TGI: > 25 µM
DU-145 prostate
  GI50: > 25 µM
  TGI: > 25 µM
HCC-2998 colon
  GI50: > 25 µM
  TGI: > 25 µM
HCT-116 colon
  GI50: > 25 µM
  TGI: > 25 µM
HCT-15 colon
  GI50: > 25 µM
  TGI: > 25 µM
HL-60(TB) leukemia
  GI50: > 25 µM
  TGI: > 25 µM
HOP-62 NSCLC
  GI50: > 25 µM
  TGI: > 25 µM
HS 578T breast
  GI50: > 25 µM
  TGI: > 25 µM
HT29 colon
  GI50: > 25 µM
  TGI: > 25 µM
IGROV1 ovarian
  GI50: > 25 µM
  TGI: > 25 µM
K-562 leukemia
  GI50: > 23.9 µM
  TGI: > 25 µM
KM12 colon
  GI50: > 25 µM
  TGI: > 25 µM
LOX IMVI melanoma
  GI50: > 25 µM
  TGI: > 25 µM
M14 melanoma
  GI50: > 25 µM
  TGI: > 25 µM
MALME-3M melanoma
  GI50: > 25 µM
  TGI: > 25 µM
MCF7 breast
  GI50: > 25 µM
  TGI: > 25 µM
MDA-MB-231 breast
  GI50: > 25 µM
  TGI: > 25 µM
MDA-MB-435
  GI50: > 13.8 µM
  TGI: > 25 µM
MOLT-4 leukemia
  GI50: > 25 µM
  TGI: > 25 µM
NCI-H226 lung
  GI50: > 25 µM
  TGI: > 25 µM
NCI-H23 lung
  GI50: > 25 µM
  TGI: > 25 µM
NCI-H460 lung
  GI50: > 25 µM
  TGI: > 25 µM
NCI-H522 lung
  GI50: > 25 µM
  TGI: > 25 µM
NCI/ADR-RES ovarian
  GI50: > 25 µM
  TGI: > 25 µM
OVCAR-3 ovarian
  GI50: > 25 µM
  TGI: > 25 µM
OVCAR-4 ovarian
  GI50: > 25 µM
  TGI: > 25 µM
OVCAR-5 ovarian
  GI50: > 25 µM
  TGI: > 25 µM
OVCAR-8 ovarian
  GI50: > 25 µM
  TGI: > 25 µM
PC-3 prostate
  GI50: > 25 µM
  TGI: > 25 µM
RPMI-8226 leukemia
  GI50: > 25 µM
  TGI: > 25 µM
RXF 393 renal
  GI50: > 25 µM
  TGI: > 25 µM
SF-268 CNS
  GI50: > 25 µM
  TGI: > 25 µM
SF-295 CNS
  GI50: > 25 µM
  TGI: > 25 µM
SF-539 CNS
  GI50: > 25 µM
  TGI: > 25 µM
SK-MEL-2 melanoma
  GI50: > 25 µM
  TGI: > 25 µM
SK-MEL-28 melanoma
  GI50: > 25 µM
  TGI: > 25 µM
SK-MEL-5 melanoma
  GI50: > 25 µM
  TGI: > 25 µM
SK-OV-3 ovarian
  GI50: > 25 µM
  TGI: > 25 µM
SN12C renal
  GI50: > 25 µM
  TGI: > 25 µM
SNB-19 CNS
  GI50: > 25 µM
  TGI: > 25 µM
SNB-75 CNS
  GI50: > 25 µM
  TGI: > 25 µM
SR leukemia
  GI50: > 16.6 µM
  TGI: > 25 µM
SW-620 colon
  GI50: > 25 µM
  TGI: > 25 µM
T-47D breast
  GI50: > 25 µM
  TGI: > 25 µM
TK-10 renal
  GI50: > 25 µM
  TGI: > 25 µM
U251 CNS
  GI50: > 25 µM
  TGI: > 25 µM
UACC-257 melanoma
  GI50: > 25 µM
  TGI: > 25 µM
UACC-62 melanoma
  GI50: > 25 µM
  TGI: > 25 µM
UO-31 renal
  GI50: > 25 µM
  TGI: > 25 µM
